In the experiment the target is T1, G Protein-Coupled Estrogen Receptor (GPER, GPR30) (Homo sapiens, UniProt Q99527).
T1 construct: gene GPER1; plasma membranes of HEK293 cells stably transfected with GPER
Briefly: [3H]E2 competitive radioligand binding to plasma membranes of GPER-transfected HEK293 cells.

Molecules are shown by their SMILES.

T1 sequence (Q99527 whole entry): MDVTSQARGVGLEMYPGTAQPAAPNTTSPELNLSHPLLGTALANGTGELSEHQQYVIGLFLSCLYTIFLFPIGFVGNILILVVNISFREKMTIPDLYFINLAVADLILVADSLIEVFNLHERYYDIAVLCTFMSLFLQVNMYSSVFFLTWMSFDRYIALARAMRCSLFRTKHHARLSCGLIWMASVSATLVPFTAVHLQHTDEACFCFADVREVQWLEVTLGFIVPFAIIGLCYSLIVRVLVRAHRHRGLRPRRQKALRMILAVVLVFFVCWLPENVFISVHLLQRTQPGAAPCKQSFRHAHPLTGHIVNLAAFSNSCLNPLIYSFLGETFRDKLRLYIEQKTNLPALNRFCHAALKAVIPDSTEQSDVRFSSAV

Take `C[C@@H](CO)CCC[C@@H](C)[C@H]1CC[C@H]2[C@@H]3CC=C4C[C@@H](O)CC[C@]4(C)[C@H]3CC[C@]12C` [27HC, 27-hydroxycholesterol]: the IC50 – broadly, the point on the concentration scale where inhibition reaches its midpoint – lay in the range of 500 to 800 nM.

The record behind these values is PMC8946696, “27-Hydroxycholesterol Binds GPER and Induces Progression of Estrogen Receptor-Negative Breast Cancer” (Cancers, 2022).
